# Source: patent US20070264355A1, “BINARY COMPOSITIONS AND METHODS FOR STERILIZATION” (Binary, LLC, priority 2005, published 2007)
# Tested on: Escherichia coli (ATCC 25922)
# Assay: Microbicidal activity against Escherichia coli (suspension test, surviving CFU)
# Assay type: cell-based
# Settings: inoculum 1630000 CFU
# Excerpt: Each solution was used alone for the individual controls. Organism suspensions were used to achieve a final target concentration of 2-3×10^6 CFU per ml. For the binary system treatments, sodium hypochlorite solution and hydrogen peroxide solution, non-acidified or acidified, were sequentially added to the microorganisms. Acidified hydrogen peroxide solution was obtained by the addition of 1.0% v/v of 0.001 N hydrochloride solution. After each addition, the resulting mixture was allowed to remain in contact with the organisms for a set amount of time at room temperature (about 22° C.), as listed in the Tables 1 and 2. At the end of the treatment time, the mixtures were neutralized with 200 to 500 microliters of thiosulfate solution (2.4%) to quench the activity of sodium hypochlorite and then treated with 100 to 200 microliters of a 1% catalase solution, containing a minimum of 100 units/ul, to quench the hydrogen peroxide activity. If needed, an appropriate volume of sterile saline was added to bring the final volume of reaction mixture to 1.4 ml after neutralization. Serial dilution plate counts were performed from the contents of each vial in sterile saline and inoculated onto TSA for quantitative culture. Plates were then incubated at 37° C. and counts taken at 24 hours. […]
smiles,measurement,setting,value
"[Na+].[O-]Cl [NaOCl, sodium hypochlorite]",Log 10 (CFU + 1) Survivors,NaOCl 0.01 mM 15 min,6.1
same,Total Viability (CFU),NaOCl 0.01 mM 15 min,1218000 CFU
same,Log 10 (CFU + 1) Survivors,NaOCl 0.02 mM 15 min,5.9
same,Total Viability (CFU),NaOCl 0.02 mM 15 min,784000 CFU
same,Log 10 (CFU + 1) Survivors,NaOCl 0.03 mM 15 min,3.0
same,Total Viability (CFU),NaOCl 0.03 mM 15 min,994 CFU
